Key:
rCGGBP1 [1] = biological target: T1, rCGGBP1 (Homo sapiens, UniProt Q9UFW8); assay: DBID dot blot of protein binding to immobilised genomic DNA, chemiluminescence densitometry; details: 100 μM compound, 45 min, 4 °C, RIPA buffer; sonicated HEK293T genomic DNA
T1 construct: gene CGGBP1; recombinant, C-terminal FLAG tag; about 20 kDa
T1 sequence (Q9UFW8 1-167): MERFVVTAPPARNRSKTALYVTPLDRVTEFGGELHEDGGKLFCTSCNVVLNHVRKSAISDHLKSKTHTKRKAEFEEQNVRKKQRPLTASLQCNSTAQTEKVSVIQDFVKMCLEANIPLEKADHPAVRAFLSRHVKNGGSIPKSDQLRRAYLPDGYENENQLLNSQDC

rCGGBP1 [2] = biological target: T1, rCGGBP1; assay: in vitro Alu DNA immunoprecipitation with qPCR (anti-FLAG); assay type: binding; details: 100 μM compound, 45 min, room temperature, PBS; Alu DNA 1 μg, protein 0.5 μg
Method: in vitro Alu DNA immunoprecipitation with qPCR (anti-FLAG) on rCGGBP1 | Pre-incubation of rCGGBP1 with Givinostat reduces the amount of Alu DNA co-precipitating with FLAG-antibody by […]

For `CC(NC(=O)c1ccccc1/N=C/c1c(O)ccc2ccccc12)c1ccccc1` (stereo not drawn) [Sirtinol], the “DBID dot blot of protein binding to immobilised genomic DNA, chemiluminescence d” value (rCGGBP1 [1]) was “(ii) moderate inhibition (Sirtinol and Tenovin-I)”.
In the case of `CCN(CC)Cc1ccc2cc(COC(=O)Nc3ccc(C(=O)NO)cc3)ccc2c1` [Givinostat], the “% reduction of co-precipitated Alu DNA at 100 μM” value (rCGGBP1 [2]) is reported as 70-80%.
In the case of `CC(=O)Nc1ccc(NC(=S)NC(=O)c2ccc(C(C)(C)C)cc2)cc1` [Tenovin-1], the “DBID dot blot of protein binding to immobilised genomic DNA, chemiluminescence d” value (rCGGBP1 [1]) is reported as “(ii) moderate inhibition (Sirtinol and Tenovin-I)”.

Reference: publication PMC7576722, “An immunochemistry-based screen for chemical inhibitors of DNA-protein interactions and its application to human CGGBP1” (BMC Cancer, 2020)
